Source: patent publication US20260242874A1, “METHOD OF PREDICTING RESPONSE TO TREATMENT” (LINNANE PHARMA AB, priority 2023, published 2026)

What was measured:
[1] = test system: non-muscle invasive bladder cancer tumors; assay: Tumor histopathology of biopsies; assay type: in vivo, human; settings: treated tumors compared to the placebo group
Text: The tumor response was further evaluated by histopathology. […] A complete response was confirmed by a lack of tumor tissue in the control biopsy or presence of minor residual tissue stroma without tumor cells. In the partial responders, fragmentation and cell shedding left few intact papilli and the tissue surface appeared denuded. In addition, tumor tissue surrounding the target lesion was affected in the responding patients, including satellite tumors, which had disappeared.
Tumor biopsies, collected at the time of surgery were evaluated by histopathology, using established parameters for scoring of Grade and Stage/Invasiveness. Tissue samples were analyzed by a designated study uro-pathologist. Both grading classifications (WHO 1973 and 2004/2016) were used. Biopsies from healthy tissue areas distant from the tumor were collected for comparison.

NMIBC = assay: Overall tumor response in patients with NMIBC (clinical and molecular end points); assay type: in vivo, human
Text: Selecting relevant treatment end points is especially challenging for conditions where cure is elusive. New molecular tools may offer increased resolution of the disease response, to complement clinical observation and understand the potential of new drug candidates. This study used a combination of clinical and molecular tools to define the tumor response to alpha1-oleate in patients with NMIBC. In addition to the evaluation of the change in tumor size, the tumor response was defined by the shedding of tumor cells and fragments into the urine, by the uptake of alpha1-oleate by the tumor and by evidence of tumor cell specific apoptosis. Gene expression analysis of tumor RNA further identified interesting differences between the groups defined as CR, PR and NR by visual inspection.
After diagnosis and informed consent, the subjects received intra-vesical instillations of either alpha1-oleate or placebo on six occasions during one month preceding a scheduled transurethral resection (TURB). A safety follow-up was performed 52 days after the first instillation.

[2] = test system: cancer related genes in bladder tumors; assay: Gene expression analysis (RNA sequencing) of tumors; assay type: in vivo, human
Text: The tumor response was characterized in greater detail by sequencing of RNA extracted from tumor tissue obtained at TURB and from biopsies obtained from adjacent tissue with a healthy appearance.
Individual tumors in patients treated with alpha1-oleate were defined as complete responders (CR), if the tumor was removed, partial responders (PR) if the tumor size was reduced, stable disease if the tumor size was unchanged (SD) or as non-responders, if the tumor size increased (Cut off=25% change in tumor size) (FIG. 1a). The effects of alpha1-oleate on gene expression were further examined for individual patients and tumors, using […], and differences were detected relative to the clinical treatment response of each tumor. By Principal component analysis (PCA FIG. 1b) the majority of responding tumors formed a cluster with a similar overall gene expression profile.
RNA was extracted from tissues stabilized in RNAlater using the AllPrep DNA/RNA/miRNA Universal Kit. Disruption was in the TissueLyser system and CK28 Precellys tubes and by homogenization in the QIAshredder homogenizer. The quantity and quality of the RNA samples were evaluated using NanoDrop and Agilent 2100 Bioanalyzer. RNA samples were prepared by Illumina TruSeq Stranded mRNA Library Prep Kit (20020594), and libraries were multiplexed and sequenced using NextSeq 500/550 High Output Kits (v2.5 2×75 Cycles) with an average of 22 million reads per sample. Raw sequencing data was demultiplexed using bcl2fastq (version 2.18) and RSEM (1.3) was used for abundance estimation using the human genome release 37/Ensemble 75. Samples were thoroughly QCed and visualized using dimensionality reduction (i.e PCA), MA-plots as well as RNA-seq intrinsic biases (such as GC bias, transcriptome complexity and alignment quality). Differential expression analysis was performed using R (version 3.4) and the packages limma and DESeq2. Fold change were calculated by comparing tumors in the treated to the placebo group. Relative expression levels were analyzed and genes with an absolute fold change >2.0 and P<0.05 were considered as differentially expressed. Heat-maps were constructed using the Gitools 2.1.1 software. Differentially expressed genes were functionally characterized using the Ingenuity Pathway Analysis version 57662101 (IPA, Qiagen) software.
In a clinical study from an ongoing randomized, placebo-controlled phase II trial in patients with non-muscle invasive bladder cancer (NMIBC), treatment with the tumor-killing peptide-lipid complex Alpha1-Hamlet, by instillations to the patients' bladders, has shown promising therapeutic effects. Tumor tissue samples of patients (obtained post-treatment at visit number 6) were analyzed.

bladder tumor cells = assay: Cell shedding into urine after intravesical instillation; assay type: in vivo, human
Description: Intravesical alpha1-oleate instillations triggered a rapid tumor response, which was quantified by comparing the pre-instillation sample in each patient to the first urine sample obtained post instillation (≤2 hours).
To quantify the shedding of cells and cell clusters into the urine, samples were obtained from each patient prior to and after each instillation of alpha1-oleate or placebo (Visit 1-Visit 6). Cell shedding was quantified by counting the total number of epithelial cells in a unit of uncentrifuged urine under light microscopy, using a hemocytometer chamber. Changes in cell shedding were quantified at each visit, by comparing cell numbers in samples obtained before and after each instillation. The cell clusters were scored based on the examination of these samples by an experienced pathologist on a range of 0-2 where 0=no clusters and 2=the highest number of clusters.

adiponectin = assay: Adiponectin-ELISA of urine samples; assay type: in vivo, human; settings: treated patients vs placebo, P<0.001
Description: To investigate levels of adiponectin protein in the urine samples of patients, an Adiponectin-ELISA test (Proteintech) was performed. The signal (absorbance) values were measured at 480 nm and interpolated to concentration (pg/mL) values using a linear regression statistical analysis. […] Graph showing urine adiponectin levels in both groups, with samples taken pre Visit 1, post Visit 1, Post Visit 3 and Post Visit 6. Line show change in median urine adiponectin levels (FIG. 4). There was statistically significant positive correlation between number of cells (shed) in urine samples and measure adiponectin levels (P=0,002), using linear regression (FIG. 4). Statistical analysis was done in GraphPad Prism.

shed bladder tumor cells = assay: DNA strand breaks by TUNEL staining of shed cells; assay type: in vivo, human; settings: shed cells post-instillation vs pre-instillation, all treated patients
Description: Double strand DNA breaks were quantified by TUNEL staining, comparing shed cells post alpha1-oleate instillation, to the pre-instillation samples.
DNA fragmentation was detected using the terminal deoxynucleotidyl transferase dUTP nick end-labelling (TUNEL) assay (Click-iT TUNEL Alexa Fluor 488 imaging assay kit, ThermoFisher). Tissue sections were de-paraffinized with xylene followed by serial dehydration with ethanol (100, 95, 75 and 50%). Dehydrated sections were fixed (4% PFA, 15 min), permeabilized (DNase-free Protease K solution 20 μg/mL, 15 min) and incubated with TUNEL reaction mixture containing TdT for 60 min at 37° C. After the TUNEL reaction, sections were incubated with Click-iT reaction mixture (30 min, 37° C.). Sections were counterstained with DAPI (1 μg/mL, 5 minutes), mounted in Fluoromount aqueous mounting media, and analyzed by fluorescence microscopy (Zeiss). Fluorescence intensities were quantified by ImageJ and net mean fluorescence intensity calculated after subtraction of background fluorescence.

[3] = test system: cancer related genes in bladder tumors; assay: Gene expression analysis (RNA sequencing) of tumors; assay type: in vivo, human; settings: log FC≤−0.10; individual tumors
tumor cells = settings: cited from earlier work
bladder cancer cells = settings: local instillations; cited from earlier work
skin papillomas = settings: topical application; cited from earlier work

## alpha1-oleate: tumor-killing peptide-lipid complex of the synthetic alpha1 peptide (aa 1-39 of human alpha-lactalbumin) and oleate
[1]
  tumor response by histopathology: Significant changes
NMIBC
  responders by tumor cell shedding, apoptosis and inhibition of cancer related genes: all patients in this study were definable as responders
[2]; 8.5 mM treated patients compared to placebo treated patients, tumor tissue post-treatment at visit 6
  ADIPOQ gene expression FC: −5353.7
[2]; RNA from tumor tissue obtained at TURB
  number of genes regulated (heat map analysis): over 3500
[2]; all treated tumors
  PRAME log FC: ≤ −10
  PTPRT log FC: ≤ −10
[2]; in vivo
  EGR3 expression: strongly downregulated
  bladder cancer related genes: strongly inhibited
  tumor microenvironment pathway genes (VEGFD, TGFB2, TGFB3, FGF1, FGF5, FGF7, FGF10, IGF1): downregulated
[2]; network analysis
  ADIPOQ dependent molecules downregulated: 66
  ADIPOQ dependent molecules strongly regulated: 78
  ADIPOQ dependent molecules upregulated: 12
[2]; of the 297 inhibited genes
  inhibited genes that were bladder cancer related: 31/297
[2]; pathway analysis, cytokine storm signaling and G protein coupled receptor signaling
  innate immune response genes: strongly down-regulated
Bladder tumor cells; at each visit compared to each pre-instillation sample
  cell numbers in urine post instillation: highly significant increase
Bladder tumor cells; first urine sample post instillation (≤2 hours)
  cell shedding: detected in all patients
adiponectin
  urine adiponectin levels: significantly higher
Shed bladder tumor cells
  TUNEL staining (double strand DNA breaks): marked increase
[3]
  number of genes strongly down-regulated in all treated tumors: 297

B1: BAMLET: complex made by mixing bovine alpha-lactalbumin with oleic acid (protein, UniProt P00711 20-142, looked up)
Alpha-lactalbumin: EQLTKCEVFRELKDLKGYGGVSLPEWVCTTFHTSGYDTQAIVQNNDSTEYGLFQINNKIWCKDDQNPHSSNICNISCDKFLDDDLTDDIMCVKKILDKVGINYWLAHKALCSEKLDQWLCEKL
modifications: oleic acid complex
Tumor cells; Rammer et al. (2010)
  effects on tumour cells compared with HAMLET: qualitatively similar effects

B2: HAMLET: human alpha-lactalbumin made lethal to tumor cells; complex of partially unfolded α-lactalbumin and oleic acid (protein, UniProt P00709 20-142, looked up)
Alpha-lactalbumin: KQFTKCELSQLLKDIDGYGGIALPELICTMFHTSGYDTQAIVENNESTEYGLFQISNKLWCKSSQVPQSRNICDISCDKFLDDDITDDIMCAKKILDIKGIDYWLAHKALCTEKLEQWLCEKL
modifications: oleic acid complex
Tumor cells
  tumoricidal activity in vitro: kills many types of tumor cells
Bladder cancer cells
  effect on bladder cancer cells: killed bladder cancer cells but not healthy cells in surrounding tissues
  effect on tumor size: caused a reduction in tumor size
Skin papillomas
  effect on skin papillomas: removed or reduced skin papillomas
